Measured values taken from paper PMC6409085, “Three odorant-binding proteins are involved in the behavioral response of Sogatella furcifera to rice plant volatiles” (PeerJ, 2019).
“And” between values parts separate entries of the source, which are not always exact repeats. Equal entries are not always repeated.

Tests used:
SfurOBP11 = SfurOBP11 (Sogatella furcifera, UniProt V5T6E3); test: biochemical; assay type: binding
Method in brief: (§1)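 Protein 2.0 µM + 1-NPN 2.0 µM, 50 mM Tris-HCl pH 7.4; competitor odorants 2, 4 … 20 µM final; read 2 min post-addition, ex 337/em 390–490 nm; n=3. K1-NPN from 1-NPN titration/Scatchard; Ki from IC50 corrected for free 1-NPN.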

SfurOBP1 = SfurOBP1 (Sogatella furcifera, UniProt V5T8N5); test: biochemical; assay type: binding; details: for Fluorescence competitive binding assay, fluorescence intensity: OBP1, three replicate columns
Sequence of SfurOBP1 (V5T8N5 entry or part of it): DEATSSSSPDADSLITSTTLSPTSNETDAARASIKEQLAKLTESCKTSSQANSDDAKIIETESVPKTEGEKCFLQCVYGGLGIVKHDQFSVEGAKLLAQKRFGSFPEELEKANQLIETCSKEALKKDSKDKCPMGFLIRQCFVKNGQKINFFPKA
Method in brief: as §1

SfurOBP3 = SfurOBP3 (Sogatella furcifera, UniProt V5T818); test: biochemical; assay type: binding; details: for Fluorescence competitive binding assay, fluorescence intensity: OBP3, three replicate columns
Sequence of SfurOBP3 (V5T818 entry or part of it): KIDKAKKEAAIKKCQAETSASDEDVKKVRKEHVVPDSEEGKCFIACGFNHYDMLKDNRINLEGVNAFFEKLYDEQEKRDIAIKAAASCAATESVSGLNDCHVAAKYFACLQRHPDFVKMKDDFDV
Method in brief: as §1

SfurOBP2 = SfurOBP2 (Sogatella furcifera, UniProt V5T759); test: biochemical; assay type: binding
Sequence of SfurOBP2 (V5T759 entry or part of it): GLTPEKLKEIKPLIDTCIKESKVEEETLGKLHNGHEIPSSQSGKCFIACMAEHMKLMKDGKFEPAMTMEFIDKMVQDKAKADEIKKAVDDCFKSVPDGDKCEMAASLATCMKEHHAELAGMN
Method in brief: as §1

S. furcifera adults = test: Y-tube olfactometer behavioral trials; assay type: in vivo, Sogatella furcifera; details: odorant 50 µL/L vs hexane; adults
Method in brief: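 Single S. furcifera adults (2 days post-emergence, starved 0.5 h) chose between odorant (100 µL of 50 µL/L on filter paper) and hexane control in a glass Y-tube, charcoal-filtered humidified air 300 mL/min per arm, 25 ± 1 °C, 50% RH. Choice scored if insect passed half an arm and stayed >1 min within 10 min; 45 insects per compound, chi-squared test.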

Sequence of SfurOBP11 (V5T6E3 entry or part of it): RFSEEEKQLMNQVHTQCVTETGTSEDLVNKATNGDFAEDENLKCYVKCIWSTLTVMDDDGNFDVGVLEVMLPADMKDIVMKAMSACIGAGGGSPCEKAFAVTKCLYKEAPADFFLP

IC50 (SfurOBP11; SfurOBP11, protein and 1-NPN both 2.0 µM, competitor 2-20 µM, read-out: IC50): > 20 µM | Fluorescence intensity, fluorescence competitive binding assay, OBP11 (SfurOBP11; ligand concentration 2, replicate 1): 29943 | Fluorescence intensity, fluorescence competitive binding assay, OBP11 (SfurOBP11; ligand concentration 2, replicate 2): 27499 | Fluorescence intensity, fluorescence competitive binding assay, OBP11 (SfurOBP11; ligand concentration 2, replicate 3): 28054 | Fluorescence intensity, fluorescence competitive binding assay, OBP11 (SfurOBP11; ligand concentration 4, replicate 1): 30256 | Fluorescence intensity, fluorescence competitive binding assay, OBP11 (SfurOBP11; ligand concentration 4, replicate 2): 30866 | Fluorescence intensity, fluorescence competitive binding assay, OBP11 (SfurOBP11; ligand concentration 4, replicate 3): 29645 | Fluorescence intensity, fluorescence competitive binding assay, OBP11 (SfurOBP11; ligand concentration 6, replicate 1): 26462 | Fluorescence intensity, fluorescence competitive binding assay, OBP11 (SfurOBP11; ligand concentration 6, replicate 2): 29047 | Fluorescence intensity, fluorescence competitive binding assay, OBP11 (SfurOBP11; ligand concentration 6, replicate 3): 31220 | Fluorescence intensity, fluorescence competitive binding assay, OBP11 (SfurOBP11; ligand concentration 8, replicate 1): 26278 | Fluorescence intensity, fluorescence competitive binding assay, OBP11 (SfurOBP11; ligand concentration 8, replicate 2): 28884 | Fluorescence intensity, fluorescence competitive binding assay, OBP11 (SfurOBP11; ligand concentration 8, replicate 3): 31318 | Fluorescence intensity, fluorescence competitive binding assay, OBP11 (SfurOBP11; ligand concentration 10, replicate 1): 27323 | Fluorescence intensity, fluorescence competitive binding assay, OBP11 (SfurOBP11; ligand concentration 10, replicate 2): 28751 | Fluorescence intensity, fluorescence competitive binding assay, OBP11 (SfurOBP11; ligand concentration 10, replicate 3): 30741 | Fluorescence intensity, fluorescence competitive binding assay, OBP11 (SfurOBP11; ligand concentration 12, replicate 1): 30511 | Fluorescence intensity, fluorescence competitive binding assay, OBP11 (SfurOBP11; ligand concentration 12, replicate 2): 30637 | Fluorescence intensity, fluorescence competitive binding assay, OBP11 (SfurOBP11; ligand concentration 12, replicate 3): 30384 | Fluorescence intensity, fluorescence competitive binding assay, OBP11 (SfurOBP11; ligand concentration 14, replicate 1): 29980 | Fluorescence intensity, fluorescence competitive binding assay, OBP11 (SfurOBP11; ligand concentration 14, replicate 2): 30187 | Fluorescence intensity, fluorescence competitive binding assay, OBP11 (SfurOBP11; ligand concentration 14, replicate 3): 31537 | Fluorescence intensity, fluorescence competitive binding assay, OBP11 (SfurOBP11; ligand concentration 16, replicate 1): 25150 | Fluorescence intensity, fluorescence competitive binding assay, OBP11 (SfurOBP11; ligand concentration 16, replicate 2): 28430 | Fluorescence intensity, fluorescence competitive binding assay, OBP11 (SfurOBP11; ligand concentration 16, replicate 3): 29261 | Fluorescence intensity, fluorescence competitive binding assay, OBP11 (SfurOBP11; ligand concentration 18, replicate 1): 33050 | Fluorescence intensity, fluorescence competitive binding assay, OBP11 (SfurOBP11; ligand concentration 18, replicate 2): 34724 | Fluorescence intensity, fluorescence competitive binding assay, OBP11 (SfurOBP11; ligand concentration 18, replicate 3): 33545 | Fluorescence intensity, fluorescence competitive binding assay, OBP11 (SfurOBP11; ligand concentration 20, replicate 1): 33953 | Fluorescence intensity, fluorescence competitive binding assay, OBP11 (SfurOBP11; ligand concentration 20, replicate 2): 35669 | Fluorescence intensity, fluorescence competitive binding assay, OBP11 (SfurOBP11; ligand concentration 20, replicate 3): 33542 | Fluorescence competitive binding assay, fluorescence intensity (SfurOBP1; ligand concentration 2 (μM)): 6022 and 9475 and 7407 | Fluorescence competitive binding assay, fluorescence intensity (SfurOBP1; ligand concentration 4 (μM)): 7163 and 8831 and 6832 | Fluorescence competitive binding assay, fluorescence intensity (SfurOBP1; ligand concentration 6 (μM)): 9235 and 7734 and 8738 | Fluorescence competitive binding assay, fluorescence intensity (SfurOBP1; ligand concentration 8 (μM)): 7490 and 9773 and 9402 | Fluorescence competitive binding assay, fluorescence intensity (SfurOBP1; ligand concentration 10 (μM)): 10034 and 9701 and 9801 | Fluorescence competitive binding assay, fluorescence intensity (SfurOBP1; ligand concentration 12 (μM)): 16511 and 14895 and 12657 | Fluorescence competitive binding assay, fluorescence intensity (SfurOBP1; ligand concentration 14 (μM)): 9553 and 12263 and 10210 | Fluorescence competitive binding assay, fluorescence intensity (SfurOBP1; ligand concentration 16 (μM)): 10515 and 10611 and 10617 | Fluorescence competitive binding assay, fluorescence intensity (SfurOBP1; ligand concentration 18 (μM)): 11876 and 13682 and 11119 | Fluorescence competitive binding assay, fluorescence intensity (SfurOBP1; ligand concentration 20 (μM)): 17922 and 11049 and 10258 | IC50 (SfurOBP1; SfurOBP1, protein and 1-NPN both 2.0 µM, competitor 2-20 µM, read-out: IC50): > 20 µM | Fluorescence competitive binding assay, fluorescence intensity (SfurOBP3; ligand concentration 2): 83183 and 87404 and 88774 | Fluorescence competitive binding assay, fluorescence intensity (SfurOBP3; ligand concentration 4): 91510 and 89708 and 93194 | Fluorescence competitive binding assay, fluorescence intensity (SfurOBP3; ligand concentration 6): 97532 and 94447 and 95269 | Fluorescence competitive binding assay, fluorescence intensity (SfurOBP3; ligand concentration 8): 93074 and 89520 and 89172 | Fluorescence competitive binding assay, fluorescence intensity (SfurOBP3; ligand concentration 10): 92952 and 88800 and 85833 | Fluorescence competitive binding assay, fluorescence intensity (SfurOBP3; ligand concentration 12): 87947 and 90919 and 89332 | Fluorescence competitive binding assay, fluorescence intensity (SfurOBP3; ligand concentration 14): 86216 and 85989 and 89098 | Fluorescence competitive binding assay, fluorescence intensity (SfurOBP3; ligand concentration 16): 77694 and 82013 and 80619 | Fluorescence competitive binding assay, fluorescence intensity (SfurOBP3; ligand concentration 18): 91776 and 100406 and 90755 | Fluorescence competitive binding assay, fluorescence intensity (SfurOBP3; ligand concentration 20): 89755 and 85247 and 85349 | IC50 (SfurOBP3; SfurOBP3, protein and 1-NPN both 2.0 µM, competitor 2-20 µM, read-out: IC50): > 20 µM | IC50 (SfurOBP2; SfurOBP2, protein and 1-NPN both 2.0 µM, competitor 2-20 µM, read-out: IC50): > 20 µM | Fluorescence competitive binding assay, OBP2 (raw fluorescence reading) (SfurOBP2; ligand concentration 2 (unit not given), replicate column 1 of 3): 17681 | Fluorescence competitive binding assay, OBP2 (raw fluorescence reading) (SfurOBP2; ligand concentration 2 (unit not given), replicate column 2 of 3): 15844 | Fluorescence competitive binding assay, OBP2 (raw fluorescence reading) (SfurOBP2; ligand concentration 2 (unit not given), replicate column 3 of 3): 16950 | Fluorescence competitive binding assay, OBP2 (raw fluorescence reading) (SfurOBP2; ligand concentration 4 (unit not given), replicate column 1 of 3): 17519 | Fluorescence competitive binding assay, OBP2 (raw fluorescence reading) (SfurOBP2; ligand concentration 4 (unit not given), replicate column 2 of 3): 20288 | Fluorescence competitive binding assay, OBP2 (raw fluorescence reading) (SfurOBP2; ligand concentration 4 (unit not given), replicate column 3 of 3): 20488 | Fluorescence competitive binding assay, OBP2 (raw fluorescence reading) (SfurOBP2; ligand concentration 6 (unit not given), replicate column 1 of 3): 19784 | Fluorescence competitive binding assay, OBP2 (raw fluorescence reading) (SfurOBP2; ligand concentration 6 (unit not given), replicate column 2 of 3): 21064 | Fluorescence competitive binding assay, OBP2 (raw fluorescence reading) (SfurOBP2; ligand concentration 6 (unit not given), replicate column 3 of 3): 19193 | Fluorescence competitive binding assay, OBP2 (raw fluorescence reading) (SfurOBP2; ligand concentration 8 (unit not given), replicate column 1 of 3): 20311 | Fluorescence competitive binding assay, OBP2 (raw fluorescence reading) (SfurOBP2; ligand concentration 8 (unit not given), replicate column 2 of 3): 19912 | Fluorescence competitive binding assay, OBP2 (raw fluorescence reading) (SfurOBP2; ligand concentration 8 (unit not given), replicate column 3 of 3): 20694 | Fluorescence competitive binding assay, OBP2 (raw fluorescence reading) (SfurOBP2; ligand concentration 10 (unit not given), replicate column 1 of 3): 21153 | Fluorescence competitive binding assay, OBP2 (raw fluorescence reading) (SfurOBP2; ligand concentration 10 (unit not given), replicate column 2 of 3): 20155 | Fluorescence competitive binding assay, OBP2 (raw fluorescence reading) (SfurOBP2; ligand concentration 10 (unit not given), replicate column 3 of 3): 21164 | Fluorescence competitive binding assay, OBP2 (raw fluorescence reading) (SfurOBP2; ligand concentration 12 (unit not given), replicate column 1 of 3): 17882 | Fluorescence competitive binding assay, OBP2 (raw fluorescence reading) (SfurOBP2; ligand concentration 12 (unit not given), replicate column 2 of 3): 20189 | Fluorescence competitive binding assay, OBP2 (raw fluorescence reading) (SfurOBP2; ligand concentration 12 (unit not given), replicate column 3 of 3): 20719 | Fluorescence competitive binding assay, OBP2 (raw fluorescence reading) (SfurOBP2; ligand concentration 14 (unit not given), replicate column 1 of 3): 19553 | Fluorescence competitive binding assay, OBP2 (raw fluorescence reading) (SfurOBP2; ligand concentration 14 (unit not given), replicate column 2 of 3): 20680 | Fluorescence competitive binding assay, OBP2 (raw fluorescence reading) (SfurOBP2; ligand concentration 14 (unit not given), replicate column 3 of 3): 20531 | Fluorescence competitive binding assay, OBP2 (raw fluorescence reading) (SfurOBP2; ligand concentration 16 (unit not given), replicate column 1 of 3): 20438 | Fluorescence competitive binding assay, OBP2 (raw fluorescence reading) (SfurOBP2; ligand concentration 16 (unit not given), replicate column 2 of 3): 19246 | Fluorescence competitive binding assay, OBP2 (raw fluorescence reading) (SfurOBP2; ligand concentration 16 (unit not given), replicate column 3 of 3): 20069 | Fluorescence competitive binding assay, OBP2 (raw fluorescence reading) (SfurOBP2; ligand concentration 18 (unit not given), replicate column 1 of 3): 24630 | Fluorescence competitive binding assay, OBP2 (raw fluorescence reading) (SfurOBP2; ligand concentration 18 (unit not given), replicate column 2 of 3): 24806 | Fluorescence competitive binding assay, OBP2 (raw fluorescence reading) (SfurOBP2; ligand concentration 18 (unit not given), replicate column 3 of 3): 23381 | Fluorescence competitive binding assay, OBP2 (raw fluorescence reading) (SfurOBP2; ligand concentration 20 (unit not given), replicate column 1 of 3): 26164 | Fluorescence competitive binding assay, OBP2 (raw fluorescence reading) (SfurOBP2; ligand concentration 20 (unit not given), replicate column 2 of 3): 20955 | Fluorescence competitive binding assay, OBP2 (raw fluorescence reading) (SfurOBP2; ligand concentration 20 (unit not given), replicate column 3 of 3): 19728
SMILES: CCCCCCCCCCCCCC [n-tetradecane]
number of insects choosing hexane arm (S. furcifera adults): 13 | number of insects choosing volatilies arm (S. furcifera adults): 14 | number of insects failed (no choice) (S. furcifera adults): 13
